For 22 compounds, IC50 results are on record in patent US11213525B2, “Linear glycosidase inhibitors” (Asceneuron SA, priority 2017, dated 2022).

This assay concerns the target His-Tagged hOGA (human O-GlcNAcase) (Homo sapiens (Human), UniProt O60502). The experiment in a line: Human O-GlcNAcase enzyme inhibition assay. As to conditions: 20 nM His-Tagged hOGA, 10 μM FL-GlcNAc, 60 min at room temperature, pH 6.5; activity classes defined in μM; read-out: Enzymatic OGA IC50. In kind it is biochemical. The method, then:
Then, 20 nM of His-Tagged hOGA and 10 μM of FL-GlcNAc (Fluorescein mono-beta-D-(2-deoxy-2-N-acetyl) glucopyranoside; Marker Gene Technologies Inc, M1485) were added to the 384-well plate for a final volume of 20 μl.

The structures appear in SMILES notation.

Chain of His-Tagged hOGA (human O-GlcNAcase) (O60502 whole entry): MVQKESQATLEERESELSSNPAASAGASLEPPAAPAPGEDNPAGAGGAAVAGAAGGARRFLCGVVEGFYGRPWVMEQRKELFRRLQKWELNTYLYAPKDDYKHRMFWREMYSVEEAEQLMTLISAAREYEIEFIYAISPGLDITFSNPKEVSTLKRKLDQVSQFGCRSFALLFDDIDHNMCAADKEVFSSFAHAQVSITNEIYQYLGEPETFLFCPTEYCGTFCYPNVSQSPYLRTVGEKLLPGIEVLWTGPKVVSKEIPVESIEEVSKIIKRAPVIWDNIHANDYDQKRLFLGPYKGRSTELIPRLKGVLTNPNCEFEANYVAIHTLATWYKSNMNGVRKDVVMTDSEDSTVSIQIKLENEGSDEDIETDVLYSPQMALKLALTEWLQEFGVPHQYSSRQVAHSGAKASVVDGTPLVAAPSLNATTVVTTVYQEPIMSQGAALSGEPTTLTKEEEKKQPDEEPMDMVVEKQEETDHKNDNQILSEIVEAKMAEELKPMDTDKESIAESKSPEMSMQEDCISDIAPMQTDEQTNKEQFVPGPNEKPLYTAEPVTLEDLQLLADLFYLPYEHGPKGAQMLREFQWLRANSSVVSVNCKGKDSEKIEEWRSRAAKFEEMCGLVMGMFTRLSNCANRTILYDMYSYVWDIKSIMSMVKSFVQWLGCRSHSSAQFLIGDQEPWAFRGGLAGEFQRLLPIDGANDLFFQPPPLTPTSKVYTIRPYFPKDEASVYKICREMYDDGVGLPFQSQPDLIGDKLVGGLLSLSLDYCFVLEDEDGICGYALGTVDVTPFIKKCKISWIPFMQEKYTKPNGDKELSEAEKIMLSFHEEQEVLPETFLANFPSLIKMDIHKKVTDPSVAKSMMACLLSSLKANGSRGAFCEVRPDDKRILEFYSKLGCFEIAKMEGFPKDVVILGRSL

A word on the IC50: it is the concentration that gives 50% inhibition. Consider `CC(c1ccc2c(c1)OCC2)N1CCN(C(=O)NC2CCOC2)CC1` (racemic) [Example 18, 4-(1-(2,3-dihydrobenzofuran-6-yl)ethyl)-N-(tetrahydrofuran-3-yl)piperazine-1-carboxamide], for which the concentration for half-maximal inhibition (IC50) lay within 0.05 to 0.2 µM.

On to `CC(c1ccc2c(c1)OCO2)N1CCN(C(=O)Nc2ccccc2)CC1` (racemic) [Example 19, 4-(1-(benzo[d][1,3]dioxol-5-yl)ethyl)-N-phenylpiperazine-1-carboxamide], for which the 50% inhibitory concentration (IC50) lay in the range of 0.2 to 1 µM.

In the case of `CC(c1ccc2c(c1)OCO2)N1CCN(C(=O)Nc2ccc(Cl)cc2)CC1` (racemic) [Example 20, 4-(1-(benzo[d][1, 3]dioxol-5-yl)ethyl)-N-(4-chlorophenyl)piperazine-1-carboxamide], the 50% inhibitory concentration (IC50) is 0.2 to 1 µM.

For the compound `CC(c1ccc2c(c1)OCC2)N1CCC(C(=O)NCc2ccc(C#N)cc2)CC1` (racemic) [Example 21, N-(4-cyanobenzyl)-1-(1-(2,3-dihydrobenzofuran-6-yl)ethyl)piperidine-4-carboxamide], the IC50 was in the range of 0.2 to 1 µM.

For `CC(c1ccc2c(c1)OCC2)N1CCC(C(=O)NCc2ccc(S(C)(=O)=O)cc2)CC1` (racemic) [Example 22, 1-(1-(2,3-dihydrobenzofuran-6-yl)ethyl)-N-(4-(methylsulfonyl)benzyl)piperidine-4-carboxamide], the IC50 lay in the range of 0.2 to 1 µM.

For the compound `CC(c1ccc2c(c1)OCC2)N1CCC(C(=O)NCc2ccc(C(F)(F)F)cc2)CC1` (racemic) [Example 23, 1-(1-(2,3-dihydrobenzofuran-6-yl)ethyl)-N-(4-(trifluoromethyl)benzyl)piperidine-4-carboxamide], the 50% inhibitory concentration (IC50) was 0.2 to 1 µM.

With `CC(c1ccc2c(c1)OCC2)N1CCC(Nc2cccnc2)CC1` (racemic) [Example 24, N-(1-(1-(2,3-dihydrobenzofuran-6-yl)ethyl)piperidin-4-yl)pyridin-3-amine], the IC50 lay within 0.05 to 0.2 µM.

Consider `CC(c1ccc2c(c1)OCC2)N1CCC(NC(=O)Cc2ccc(S(C)(=O)=O)cc2)CC1` (racemic) [Example 25, N-(1-(1-(2,3-dihydrobenzofuran-6-yl)ethyl)piperidin-4-yl)-2-(4-(methylsulfonyl)phenyl)acetamide], for which the 50% inhibitory concentration (IC50) was less than 0.05 µM.

For the compound `CC(c1ccc2c(c1)OCC2)N1CCC(NC(=O)Cc2ccc(C#N)cc2)CC1` (racemic) [Example 26, 2-(4-cyanophenyl)-N-(1-(1-(2,3-dihydrobenzofuran-6-yl)ethyl)piperidin-4-yl)acetamide], the IC50 lay within 0.05 to 0.2 µM.

Consider `CC(c1ccc2c(c1)OCC2)N1CCC(NC(=O)Cc2ccc(C(F)(F)F)cc2)CC1` (racemic) [Example 27, N-(1-(1-(2,3-dihydrobenzofuran-6-yl)ethyl)piperidin-4-yl)-2-(4-(trifluoromethyl)phenyl)acetamide], for which the IC50 was in the range of 0.05 to 0.2 µM.

`COc1cc(OC2CCN(C(C)c3ccc4c(c3)OCC4)CC2)ccn1` (racemic) [Example 29, 4-((1-(1-(2,3-dihydrobenzofuran-6-yl)ethyl)piperidin-4-yl)oxy)-2-methoxypyridine]: the IC50 was less than 0.05 µM.

`CC(c1ccc2c(c1)OCC2)N1CCC(Oc2ccc(S(C)(=O)=O)cn2)CC1` (racemic) [Example 30, 2-((1-(1-(2,3-dihydrobenzofuran-6-yl)ethyl)piperidin-4-yl)oxy)-5-(methylsulfonyl)pyridine]: the half-inhibitory concentration (IC50) is less than 0.05 µM.

Turning to `CC(c1ccc2c(c1)OCC2)N1CCC(Oc2cccnc2)CC1` (racemic) [Example 32, 3-((1-(1-(2,3-dihydrobenzofuran-6-yl)ethyl)piperidin-4-yl)oxy)pyridine], the IC50 was less than 0.05 µM.

On to `CC(c1ccc2c(c1)OCC2)N1CCC(Oc2ccc(C#N)cn2)CC1` (racemic) [Example 33, 6-((1-(1-(2,3-dihydrobenzofuran-6-yl)ethyl)piperidin-4-yl)oxy)nicotinonitrile], for which the IC50 was less than 0.05 µM.

Consider `CC(c1ccc2c(c1)OCC2)N1CCC(Oc2cncnc2)CC1` (racemic) [Example 34, 5-((1-(1-(2,3-dihydrobenzofuran-6-yl)ethyl)piperidin-4-yl)oxy)pyrimidine], for which the IC50 lay in the range of 0.05 to 0.2 µM.

In the case of `CC(c1ccc2c(c1)OCC2)N1CCC(OCc2cccnc2)CC1` (racemic) [Example 35, 3-(((1-(1-(2,3-dihydrobenzofuran-6-yl)ethyl)piperidin-4-yl)oxy)methyl)pyridine], the half-maximal inhibitory concentration (IC50) is 0.05 to 0.2 µM.

Consider `CC(c1ccc2c(c1)OCC2)N1CCC(Oc2ncc(S(C)(=O)=O)cn2)CC1` (racemic) [Example 36, 2-((1-(1-(2,3-dihydrobenzofuran-6-yl)ethyl)piperidin-4-yl)oxy)-5-(methylsulfonyl)pyrimidine], for which the IC50 lay in the range of 0.05 to 0.2 µM.

`CC(c1ccc2c(c1)OCC2)N1CCC(Oc2ncccn2)CC1` (racemic) [Example 37, 2-((1-(1-(2,3-dihydrobenzofuran-6-yl)ethyl)piperidin-4-yl)oxy)pyrimidine]: the half-maximal inhibitory concentration (IC50) is 0.2 to 1 µM.

Take `CC(c1ccc2c(c1)OCC2)N1CCC(Oc2cccnn2)CC1` (racemic) [Example 38, 3-((1-(1-(2,3-dihydrobenzofuran-6-yl)ethyl)piperidin-4-yl)oxy)pyridazine]: the 50% inhibitory concentration (IC50) is 0.2 to 1 µM.

As for `CC(c1ccc2c(c1)OCC2)N1CCC(Oc2cccnc2)CC1` (single isomer, unassigned) [Example 28], the half-maximal inhibitory concentration (IC50) is less than 0.05 µM.

Consider `CC(c1ccc2scnc2c1)N1CCC(Oc2cccnc2)CC1` (single isomer, unassigned) [Example 31, (S)-5-(1-(4-(pyridin-3-yloxy)piperidin-1-yl)ethyl)benzo[d]thiazole or (R)-5-(1-(4-(pyridin-3-yloxy)piperidin-1-yl)ethyl)benzo[d]thiazole], for which the half-maximal inhibitory concentration (IC50) is less than 0.05 µM.

Regarding `CC(c1ccc2c(c1)OCC2)N1CCC(Oc2cccnc2)CC1` (single isomer, unassigned) [Example 39], the half-maximal inhibitory concentration (IC50) is 1 to 10 µM.
